Assay results published in patent publication US20230143490A1, “METHODS OF TREATING SOIL” (Taminco BV, priority 2020, published 2023).

How the values were obtained:
[1] = test system: F. oxysporum f. sp. cubense; assay: Panama disease analysis of field soil samples after metam sodium injection (plating on Komada medium); assay type: in vivo, Fusarium oxysporum f. sp. cubense Tropical Race 4; settings: any of the treated groups; any day post application
Description: (§1) Metam Sodium Application. Metam sodium 510 SL (equivalent to 42% w/w) was applied to soil at the following doses: 0 liters per hectare (L/ha), 750 L/ha, 1500 L/ha, 2250 L/ha, 3000 L/ha.
(§2) Prior to injection, soil was prepared using a rototiller to break the soil structure from 0 cm to 80 cm deep, allowing for the smooth and even injection application by an injection machine. The soil was then leveled and made uniform, and the metam sodium was applied at two depths: 30 cm and 60 cm, using injection methods. The temperature was at a minimum of 10° C. and soil humidity was between 50 and 60% holding capacity, allowing the applied product to transform from metam sodium (liquid) to MITC (gas).
(§3) The application was made using an injection machine wherein the machine lowered shanks and began moving forward such that the shanks lowered to a depth of 60 cm and injectors applied the metam sodium into the soil. When the injection at 60 cm was complete, the process was repeated for the entire field at 30 cm. The treated soil in the field was then sealed using a packer roller (which was part of the injection machinery, located at the back end of the machine), after each application.
Soil Analysis. Soil samples were obtained at 20, 40, and 60 cm before application and every 24 hours beginning 48 hours after application, for seven days.
Plant Pathology Analysis. […]

[2] = test system: Foc TR4 chlamydospores; assay: In vitro efficacy of metam sodium on Foc TR4 chlamydospores (colony growth on PDA plates); assay type: cell-based, Fusarium oxysporum f. sp. cubense Tropical Race 4
Description: Foc TR4 chlamydospores were extracted from infested soil and incubated with a dilution series of metam sodium for 5 min and 60 min at room temperature. Thereafter, the samples were diluted 10× to get reduction of the treatment and sufficient dilution of chlamydospores to avoid lack of resolution when grown on plate. Aliquots of 100 μl were plated on PDA plates in duplicate and incubated for 3 days at 25° C. Plates were photographed and scored.

[3] = test system: Cavendish banana plants; assay: Field trial: banana plant growth and development after metam sodium soil injection at 30 cm and 60 cm; assay type: in vivo, Musa (Cavendish banana)
Description: as §1, §2, §3
Plant Selection and Transplantation. Cavendish banana plants were used for this investigation. In order to avoid plants already contaminated by other soil, all plants were produced in vitro using art-recognized methods. Plants were transplanted into the field 14 days after the final soil reading was taken (21 days after treatment).
Data Gathering. Data were gathered at monthly intervals beginning three months after banana plants were transplanted. A total of three data collection sessions were conducted. Data including the number of leaves, plant height, and girth size were collected.

[4] = 750 L/ha, six months after treatment
[5] = 1500 L/ha, six months after treatment
[6] = 2250 L/ha, six months after treatment
[7] = 3000 L/ha, six months after treatment

In the case of `CNC(=S)S` [metam sodium, sodium N-methyldithiocarbamate], the “soil contamination: Foc TR4 detection” value [1] was “No Foc TR4 was detected”, the “reducing the number of surviving chlamydospores, measured as growing colonies” value ([2]; 100× dilution, prolonged incubation (60 min vs 5 min)) was “more effective” and the “efficacy on Foc TR4 colony growth” value ([2]; dilution of 10×, incubation time 5 minutes) was “effective”. The “efficacy on Foc TR4 colony growth” value ([2]; dilution of 100×, 5 and 60 minutes) was “less effective”, the “reduction in viability of Foc TR4 chlamydospores” value ([2]; first test, dilutions from 1000 up to 10×10^6-fold, 60 min) was “No significant reduction in viability” and the “efficacy against Foc TR4 chlamydospores” value ([2]; in vitro conditions, dependent on high concentrations) was “effective against Foc TR4 chlamydospores”. The “efficacy on chlamydospore survival” value ([2]; second test, 10× and 100× dilutions) was “(partially) effective”, the “number of chlamydospores that survived” value ([2]; second test, dilutions of 1000× and more) was “did not affect the number of chlamydospores that survived” and the “average girth size of banana plant, increase” value ([3]; 750 L/ha) was about 1 cm. For the same molecule, the “average height of banana plant, increase” value ([3]; 750 L/ha) was about 5 cm, the “percent of plants at either shooting or bagging stage” value [3, 4] was 11% and the “percent of plants at shooting stage” value [3, 4] was 9%. For the same molecule, the “plants reaching bagging stage” value [3, 4] was “did not have a meaningful effect”, the “average girth size of banana plant, increase” value ([3]; 1500-3000 L/ha) was 4-6 cm and the “average height of banana plant, increase” value ([3]; 1500-3000 L/ha) was 20-23 cm. The “percent of plants at either shooting or bagging stage” value [3, 5] was 28%, the “percent of plants at shooting stage” value [3, 5] was 10% and the “percent of plants at bagging stage” value ([3]; 1500 to 3000 L/ha, six months after treatment) was 11-19%. The “percent of plants at either shooting or bagging stage” value [3, 6] was 27%, the “percent of plants at shooting stage” value [3, 6] was 17% and the “percent of plants at either shooting or bagging stage” value [3, 7] was 35%. The “percent of plants at shooting stage” value [3, 7] was 22% and the “average number of leaves, increase” value ([3]; regardless of dose applied (750-3000 L/ha), vs 0 L/ha) was “roughly 1.5 fold”.
